The source of these data is patent publication US20030082511A1, “Identification of modulatory molecules using inducible promoters” (priority 2001, published 2003).

The structures appear in SMILES notation.

Data set [1] has as its target T1, HERG potassium ion channel (Homo sapiens, UniProt Q12809).
T1 construct: expressed in transfected cells; host or cells: T-REx CHO cells, clone 5J
Description: Membrane potential assay (Disbac5Me4/Disbac3Me4 fluorescence) in inducible HERG TREX/CHO clone 5J. It is filed as cell-based. The following applies: FIG. 8. As to the method: The HERG positive TREX/CHO clone 5J was plated at 3×10^6 cells in replicate 10 cm tissue culture dishes. After 24 hours one dish was treated with […] doxycycline to induce HERG expression. After 24 hours induction, both induced and uninduced cells were harvested with trypsin, counted and adjusted to the same cell density in hybridoma media (Sigma). A solution of 1×10^5 cells/ml and 0.4 μM each Disbac5Me4 and Disbac3Me4 in hybridoma media was stirred in a cuvette in a JY-Spex fluorometer. Fluorescence intensity from 540 excitation and 690 emission was followed over time. The extracellular potassium chloride was adjusted to 100 mM with 3N KCl at the indicated time. 25 nM pimozide was then added at the indicated time.

Data set [2] addresses T2, mouse potassium voltage-gated channel KCNC1 (Mus musculus, UniProt P15388).
T2 construct: The 2 kb KCNC1 gene fragment and the pcDNA4/Tob vector were gel purified, ligated; host or cells: T-REx CHO cells
T2 sequence (P15388 1-585 isoform P15388-3): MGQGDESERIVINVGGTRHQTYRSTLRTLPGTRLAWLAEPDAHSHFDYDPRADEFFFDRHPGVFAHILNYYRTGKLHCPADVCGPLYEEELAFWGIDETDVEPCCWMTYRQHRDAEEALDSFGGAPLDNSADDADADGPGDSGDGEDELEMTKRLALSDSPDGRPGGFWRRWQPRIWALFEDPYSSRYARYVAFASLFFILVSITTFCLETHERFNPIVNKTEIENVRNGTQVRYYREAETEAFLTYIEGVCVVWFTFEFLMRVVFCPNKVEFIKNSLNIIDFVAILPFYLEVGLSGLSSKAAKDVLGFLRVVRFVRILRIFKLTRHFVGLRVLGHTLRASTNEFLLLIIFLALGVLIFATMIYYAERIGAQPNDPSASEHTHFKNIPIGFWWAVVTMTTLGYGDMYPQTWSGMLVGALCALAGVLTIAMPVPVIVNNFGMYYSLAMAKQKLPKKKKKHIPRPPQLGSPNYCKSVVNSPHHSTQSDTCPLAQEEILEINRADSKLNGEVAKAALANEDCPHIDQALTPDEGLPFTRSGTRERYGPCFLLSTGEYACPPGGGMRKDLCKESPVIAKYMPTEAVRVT
As to the kind of experiment: Membrane potential assay (Disbac5Me4/Disbac3Me4 fluorescence) in tetracycline-inducible KCNC1 TREX/CHO cells. It is filed as cell-based. The following applies: for depolarization (change in fluorescence intensity of the indicator dye) on addition of potassium chloride: KCl added in 50 mM steps, induced vs non-induced KCNC1 CHO cells, FIG. 4; for response to KCl addition / depolarization with KCl (membrane potential dye fluorescence): induced KCNC1 CHO cells pre-incubated with BaCl2 30 mM at least 30 minutes. The protocol:
In this example, fluorescent dyes are used to assay for changes in membrane potential, essentially as described in Example 4.
A KCNC1 positive TREX/CHO clone was plated at 3×10^6 cells in replicate 10 cm tissue culture dishes. After 24 hours one dish was treated with 10 μg/mL deoxycycline to induce KCNC1 expression. After a 24 hour induction period, both induced and uninduced cells were harvested with trypsin, counted, and adjusted to equal cell densities in hybridoma media (Sigma, St. Louis, Mo.). A solution of 3.3×10^5 cells and 0.4 μM of each Disbac5Me4 and Disbac3Me4 in hybridoma media was stirred in a cuvette in a JY-Fluormax-2 fluorometer (JY, Edison N.J.). Fluorescence intensity from 540 nm excitation and 690 nm emission was measured over time. The extracellular potassium chloride level was adjusted to 50 mM, 10 mM, and 150 mM with 3 N KCl at the indicated times. Each cell population was tested in triplicate and the mean and standard error (SE) were determined.
4-aminopyridine is a known specific inhibitor of Kv3.1b (Grissmer et al., Molec. Pharmacol. 45:1227-1234, 1994; Kirsch and Drewe, Jour. Gen. Physiol. 102:797-816, 1993; Grissmer et al. Jour. Biol. Chem. 267:20971-20979, 1992), the human homologue of KCNC1. […] Pre-incubation with 30 mM KCl had no effect, ruling out the possibility that effects of BaCl2 resulted from simply changing the ionic strength of the extracellular medium (data not shown). Each cell population was tested in triplicate. The mean and SE are shown in the FIG. 5 (aminopyridine) and FIG. 6 (BaCl2).

T1 sequence (Q12809 whole entry): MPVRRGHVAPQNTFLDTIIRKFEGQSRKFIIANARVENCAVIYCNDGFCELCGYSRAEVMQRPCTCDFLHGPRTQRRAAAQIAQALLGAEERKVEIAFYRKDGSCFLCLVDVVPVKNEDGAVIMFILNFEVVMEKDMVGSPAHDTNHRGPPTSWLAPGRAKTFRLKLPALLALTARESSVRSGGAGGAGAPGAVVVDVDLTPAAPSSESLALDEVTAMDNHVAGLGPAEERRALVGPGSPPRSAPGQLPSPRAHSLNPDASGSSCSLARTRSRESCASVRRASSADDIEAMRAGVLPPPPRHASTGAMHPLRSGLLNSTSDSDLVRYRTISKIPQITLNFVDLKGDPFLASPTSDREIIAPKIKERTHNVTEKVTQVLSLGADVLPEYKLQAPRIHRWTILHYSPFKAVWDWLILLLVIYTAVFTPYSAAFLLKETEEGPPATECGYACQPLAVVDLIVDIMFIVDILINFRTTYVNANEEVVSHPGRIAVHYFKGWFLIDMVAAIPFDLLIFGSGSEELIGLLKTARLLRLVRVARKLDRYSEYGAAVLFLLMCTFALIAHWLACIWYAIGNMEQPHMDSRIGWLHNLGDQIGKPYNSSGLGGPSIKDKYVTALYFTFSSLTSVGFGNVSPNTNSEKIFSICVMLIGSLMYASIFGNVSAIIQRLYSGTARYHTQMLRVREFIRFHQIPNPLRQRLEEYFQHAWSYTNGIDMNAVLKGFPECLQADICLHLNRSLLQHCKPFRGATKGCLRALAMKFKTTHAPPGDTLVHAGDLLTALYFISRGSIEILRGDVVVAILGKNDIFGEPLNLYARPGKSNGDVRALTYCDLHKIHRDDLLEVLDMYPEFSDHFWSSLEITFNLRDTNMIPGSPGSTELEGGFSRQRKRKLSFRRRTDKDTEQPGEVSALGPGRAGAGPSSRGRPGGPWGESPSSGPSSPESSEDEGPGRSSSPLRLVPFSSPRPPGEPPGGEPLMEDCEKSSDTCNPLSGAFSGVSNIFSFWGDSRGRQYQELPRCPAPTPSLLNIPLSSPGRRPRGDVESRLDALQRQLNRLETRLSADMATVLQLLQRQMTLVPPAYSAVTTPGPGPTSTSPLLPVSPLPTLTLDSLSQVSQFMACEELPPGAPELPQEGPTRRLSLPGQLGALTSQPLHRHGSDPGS

With `O=c1[nH]c2ccccc2n1C1CCN(CCCC(c2ccc(F)cc2)c2ccc(F)cc2)CC1` [pimozide], the “sensitivity of membrane potential to pimozide” value in data set [1] (25 nM pimozide added after 100 mM KCl, induced vs uninduced cells) is given as “more sensitive”.

Turning to `[Cl-].[K+]` [KCl, potassium chloride], the “depolarization (change in fluorescence intensity of the indicator dye) on addition of potassium chloride” value is recorded as “show a response” in data set [2] and “depolarization of the an induced population of cells in comparison to a non-induced cell population” in data set [2] (listed as potassium chloride). Also, the “effect of pre-incubation on membrane potential response (ionic strength control)” value in data set [2] (pre-incubation with 30 mM KCl, data not shown) is given as “no effect”. Further, in data set [1] (100 mM KCl, induced HERG expressing vs uninduced cells), the “depolarization on addition of potassium chloride” value is given as “depolarizes the HERG expressing cells to a greater extent than the uninduced cells”.

Take `[Ba+2].[Cl-].[Cl-]` [BaCl2]: the resting potential entry in data set [2] (KCNC1 CHO cells pre-incubated with BaCl2 30 mM at least 30 minutes, FIG. 6) is on record as “less polarized resting potential”. In addition, the “response to KCl addition / depolarization with KCl (membrane potential dye fluorescence)” value in data set [2] (FIG. 6) is recorded as “ameliorated the response to KCl addition”; in data set [2] (FIG. 6, listed as BaCI2) it was “decreased response to depolarization with KCl”. Besides, the “characteristics of cells induced to overexpress KCNC1 compared with uninduced cells” value in data set [2] (pre-incubated with BaCl2 (30 mM), FIG. 6) is reported as “show characteristics more similar to uninduced cells”.

Consider `Nc1ccncc1` [4-aminopyridine], for which, in data set [2] (induced KCNC1 CHO cells pre-incubated with 4-aminopyridine 900 μM at least 30 minutes, FIG. 5), the “response to KCl addition (membrane potential dye fluorescence)” value is reported as “lessened the response to KCl addition”. The “characteristics of cells induced to overexpress KCNC1 compared with uninduced cells” value in data set [2] (pre-incubated with 4-aminopyridine (900 μM), FIG. 5) is given as “show characteristics more similar to uninduced cells”.
